In patent publication US9085555B2, “Complement pathway modulators and uses thereof” (priority 2011, dated 2015):

Target: Factor D (Homo sapiens (Human), UniProt P00746)
Assay: biochemical
Format: biochemical
Conditions: read-out: IC50

Factor D, sequence (P00746 26-253): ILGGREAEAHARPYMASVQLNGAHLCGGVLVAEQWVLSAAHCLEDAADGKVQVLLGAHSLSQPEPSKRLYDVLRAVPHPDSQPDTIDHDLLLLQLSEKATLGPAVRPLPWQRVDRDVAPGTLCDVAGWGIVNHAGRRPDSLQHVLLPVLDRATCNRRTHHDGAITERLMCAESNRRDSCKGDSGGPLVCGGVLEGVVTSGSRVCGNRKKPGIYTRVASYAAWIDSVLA

Substance: (S)-1-[2-(3-Formyl-indol-1-yl)- acetyl]-pyrrolidine-2- carboxylic acid (3-trifluoro- methoxy-phenyl)-amide [Example 559]
- IC50: 15.7 µM
